Reference: US20100160369A1, “S1P1 Agonists and Methods of Making And Using” (EXELIXIS, INC., priority 2008, published 2010)
pEC50: −log10 of the molar value.

Key:
S1P1 [1] = target: T1, S1P1 (Homo sapiens, UniProt P21453); assay: CNG cAMP Assay (Assay 1); type: cell-based; set-up: host or cells: HEK293 cells expressing the CNG channel; settings: read-out: Assay 1 EC50
Method in brief: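 HEK293 cells expressing CNG channel and S1P1, membrane-potential dye loaded; compounds (top 10 μM, 10-point 3-fold, 1.8% DMSO) added with 25 μM Ro 20-1724, 500 nM NECA and 10 nM S1P for 90 min. T90/T0 fluorescence (Ex 350/Em 590 nm) normalised to NECA-alone vs DMSO; EC50 fitted.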
Target sequence in this assay (P21453 whole entry): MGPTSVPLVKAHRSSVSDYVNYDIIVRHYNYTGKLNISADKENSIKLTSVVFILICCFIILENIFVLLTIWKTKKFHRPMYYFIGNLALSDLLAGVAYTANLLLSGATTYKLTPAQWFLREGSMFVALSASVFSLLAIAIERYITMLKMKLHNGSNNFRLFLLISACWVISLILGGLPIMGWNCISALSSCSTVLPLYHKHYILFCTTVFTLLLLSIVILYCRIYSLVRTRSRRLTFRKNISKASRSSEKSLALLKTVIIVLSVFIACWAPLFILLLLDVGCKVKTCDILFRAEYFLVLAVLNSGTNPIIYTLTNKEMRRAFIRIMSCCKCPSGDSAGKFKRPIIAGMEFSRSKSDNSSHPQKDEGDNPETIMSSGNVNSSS

S1P1 [2] = target: T1, S1P1; assay: Tango β-arrestin Recruitment Assay in HEK293 cells (Assay 2a); type: cell-based; set-up: linker with TEV protease (N1a) cleavage site (C); host or cells: HEK293, transiently transfected; settings: Tango β-arrestin Recruitment Assay, read-out: Assay 2a EC50
Description: For the Tango™ β-arrestin recruitment assay, the cytoplasmic C-terminus of S1P1 is tethered to the tTA transcriptional activator with a linker that contains a cleavage site for the N1a protease from tobacco etch virus (TEV protease). The C-terminus of the human β-arrestin2 protein is fused to TEV protease. Binding of an agonist recruits the β-arrestin-TEV fusion protein to the receptor resulting in cleavage of the linker and release of tTA to enter the nucleus and subsequently activate a tTA-dependent luciferase reporter gene.
Frozen HEK293 cells transiently transfected with receptor cDNAs for S1P1 (Invitrogen) were thawed and suspended in 10 mL of Pro293a-CDM culture medium (Invitrogen) supplemented with 4 mM L-Glutamine (Invitrogen), 1× Pen/Strep (100 units/mL penicillin and 100 μg/mL streptomycin, Invitrogen) and 0.1% fatty acid free BSA (Sigma-Aldrich). Cells were added to the wells of a 384-well white opaque bottom assay plate (PerkinElmer) at 3,000-6,000 cells per well and the plate was incubated for approximately 4 h in a 37° C. incubator. Test compounds were tested at maximum concentrations of 10 μM for the agonist assays. Compounds were diluted in DMSO (10 concentration points, 3-fold each) and added to the assay plate at a 1% final DMSO concentration. For each compound, there were duplicate assay plates and each assay plate had duplicate wells per concentration point. The plate was incubated at 37° C. for 30 min. The efficacy control was 5 μM S1P (Avanti). Following agonist addition, the assay plates were incubated in a 37° C. incubator for 16-18 h. Luciferase assay reagent was added and luminescence measured in an EnVision plate reader (PerkinElmer). To determine agonist activity, percent activity was calculated as [(test compound−background)/(positive control−background)* 100], where background is the luminescence of the DMSO alone control and the positive control is the luminescence from cells incubated with the efficacy control 5 μM S1P. The percent activities were plotted against compound concentration to determine EC50 using XLFit (IDBS).
Assay 1 is the CNG cAMP Assay as described in Biological Example 1. Assay 2a and 2b are the Tango™ β-arrestin Recruitment Assay in HEK293 and U2OS cells, respectively, as described in Biological Example 2. Assay 3a is the hS1P1R GTPγS Binding Assay as described in Biological Example 3. Assay 3b is the GTP-Eu Binding Assay as described in Biological Example 3. EC50's were measured unless otherwise noted. […] In the table, “nt” means the Compound was not tested and “no” means the compound was tested but had no measurable activity under the assay conditions employed.
Target sequence in this assay (P21453 whole entry): as above
Target sequence in this assay (P32121 whole entry partner): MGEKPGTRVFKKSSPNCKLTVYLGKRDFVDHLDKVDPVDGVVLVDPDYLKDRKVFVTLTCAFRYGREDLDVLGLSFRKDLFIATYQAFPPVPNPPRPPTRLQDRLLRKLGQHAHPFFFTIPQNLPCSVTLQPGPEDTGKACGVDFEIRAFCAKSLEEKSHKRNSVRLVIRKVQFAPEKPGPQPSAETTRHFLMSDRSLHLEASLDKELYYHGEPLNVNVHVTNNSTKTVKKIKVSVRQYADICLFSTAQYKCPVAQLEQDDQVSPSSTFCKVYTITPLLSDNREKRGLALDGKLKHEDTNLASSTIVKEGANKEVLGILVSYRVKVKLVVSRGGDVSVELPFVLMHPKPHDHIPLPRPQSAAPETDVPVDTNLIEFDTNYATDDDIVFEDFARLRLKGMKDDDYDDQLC

Row | Compound | pEC50 (S1P1 [1]) | pEC50 (S1P1 [2])
1 | O=C(O)CCc1cc(Cl)c(-c2noc(-c3cn4cc(Br)cc(Cl)c4n3)n2)cc1F [Entry 64] | ≥ 7.00 | ≥ 7.00
2 | O=C(O)CN1CCC(Oc2cc(Cl)c(-c3noc(-c4cn5cc(C(F)(F)F)cc(Cl)c5n4)n3)cc2F)C1 (stereo not drawn) [Example 92, {3-[(5-chloro-4-{5-[8-chloro-6-(trifluoromethyl)imidazo[1,2-a]pyridin-2-yl]-1,2,4-oxadiazol-3-yl}-2-fluorophenyl)oxy]pyrrolidin-1-yl}acetic acid] | ≥ 7.00 | ≥ 7.00
3 | O=C(O)[C@H]1C[C@H](Oc2ccc(-c3noc(-c4cn5cc(C(F)(F)F)cc(Cl)c5n4)n3)c(Cl)c2)CN1 [Example 97, (4S)-4-[(3-chloro-4-{5-[8-chloro-6-(trifluoromethyl)imidazo[1,2-a]pyridin-2-yl]-1,2,4-oxadiazol-3-yl}phenyl)oxy]-D-proline] | ≥ 7.00 | ≥ 7.00
4 | Cc1cc(NS(C)(=O)=O)ccc1-c1noc(-c2cn3cc(C(F)(F)F)cc(Cl)c3n2)n1 [Example 98, N-(4-{5-[8-chloro-6-(trifluoromethyl)imidazo[1,2-a]pyridin-2-yl]-1,2,4-oxadiazol-3-yl}-3-methylphenyl)methanesulfonamide] | ≥ 7.00 | ≥ 7.00
5 | CS(=O)(=O)NCc1ccc(-c2noc(-c3cn4cc(C(F)(F)F)cc(Cl)c4n3)n2)c(Cl)c1 [Example 136, N-[(3-chloro-4-{5-[8-chloro-6-(trifluoromethyl)imidazo[1,2-a]pyridin-2-yl]-1,2,4-oxadiazol-3-yl}phenyl)methyl]methanesulfonamide] | ≥ 7.00 | ≥ 7.00
6 | Fc1cccc(F)c1-c1noc(-c2cn3cc(C(F)(F)F)cc(Cl)c3n2)n1 [Example 141, 8-chloro-2-[3-(2,6-difluorophenyl)-1,2,4-oxadiazol-5-yl]-6-(trifluoromethyl)imidazo[1,2-a]pyridine] | 6.00 to 6.30 | 6.30 to 7.00
7 | Fc1ccccc1-c1noc(-c2cn3cc(C(F)(F)F)cc(Cl)c3n2)n1 [Example 142, 8-chloro-2-[3-(2-fluorophenyl)-1,2,4-oxadiazol-5-yl]-6-(trifluoromethyl)imidazo[1,2-a]pyridine] | 6.30 to 7.00 | 6.00 to 6.30
8 | Cc1ccccc1-c1noc(-c2cn3cc(C(F)(F)F)cc(Cl)c3n2)n1 [Example 150, 8-chloro-2-[3-(2-methylphenyl)-1,2,4-oxadiazol-5-yl]-6-(trifluoromethyl)imidazo[1,2-a]pyridine] | ≥ 7.00 | 6.30 to 7.00
9 | FC(F)(F)c1cc(Br)c2nc(-c3nc(-c4ccccc4Cl)no3)cn2c1 [Example 159, 8-bromo-2-[3-(2-chlorophenyl)-1,2,4-oxadiazol-5-yl]-6-(trifluoromethyl)imidazo[1,2-a]pyridine] | ≥ 7.00 | 6.30 to 7.00
10 | Cc1cc(C#N)c2nc(-c3nc(-c4cc(F)c(CCC(=O)O)cc4Cl)no3)cn2c1 [Example 160, 3-{5-chloro-4-[5-(8-cyano-6-methylimidazo[1,2-a]pyridin-2-yl)-1,2,4-oxadiazol-3-yl]-2-fluorophenyl}propanoic acid] | ≥ 7.00 | 6.30 to 7.00
11 | CC(Cc1ccc(-c2noc(-c3cn4cc(C(F)(F)F)cc(Cl)c4n3)n2)c(Cl)c1)C(=O)O (stereo not drawn) [Example 171, 3-(3-chloro-4-{5-[8-chloro-6-(trifluoromethyl)imidazo[1,2-a]pyridin-2-yl]-1,2,4-oxadiazol-3-yl}phenyl)-2-methylpropanoic acid] | ≥ 7.00 | 6.30 to 7.00
12 | Cc1cc(CC(C)C(=O)O)ccc1-c1noc(-c2cn3cc(C(F)(F)F)cc(Br)c3n2)n1 (stereo not drawn) [Example 173, 3-(4-{5-[8-bromo-6-(trifluoromethyl)imidazo[1,2-a]pyridin-2-yl]-1,2,4-oxadiazol-3-yl}-3-methylphenyl)-2-methylpropanoic acid] | ≥ 7.00 | 6.30 to 7.00
13 | Cc1cc(CC(C)C(=O)O)ccc1-c1noc(-c2cn3cc(C(F)(F)F)cc(Cl)c3n2)n1 (stereo not drawn) [Example 180, 3-(4-{5-[8-chloro-6-(trifluoromethyl)imidazo[1,2-a]pyridin-2-yl]-1,2,4-oxadiazol-3-yl}-3-methylphenyl)-2-methylpropanoic acid] | ≥ 7.00 | 6.30 to 7.00
14 | Cc1cc(C(C)CC(=O)O)ccc1-c1noc(-c2cn3cc(C(F)(F)F)cc(Cl)c3n2)n1 (stereo not drawn) [Example 181, 3-(4-{5-[8-chloro-6-(trifluoromethyl)imidazo[1,2-a]pyridin-2-yl]-1,2,4-oxadiazol-3-yl}-3-methylphenyl)butanoic acid] | ≥ 7.00 | 6.30 to 7.00
15 | Oc1cc(Cl)c(-c2noc(-c3cn4cc(C(F)(F)F)cc(Cl)c4n3)n2)cc1Cl [Example 191, 2,5-dichloro-4-{5-[8-chloro-6-(trifluoromethyl)imidazo[1,2-a]pyridin-2-yl]-1,2,4-oxadiazol-3-yl}phenol] | ≥ 7.00 | ≥ 7.00
16 | CC(Cc1cc(Cl)c(-c2noc(-c3cn4cc(C(F)(F)F)cc(Cl)c4n3)n2)cc1F)C(=O)O (stereo not drawn) [Example 203, 3-(5-chloro-4-{5-[8-chloro-6-(trifluoromethyl)imidazo[1,2-a]pyridin-2-yl]-1,2,4-oxadiazol-3-yl}-2-fluorophenyl)-2-methylpropanoic acid] | ≥ 7.00 | 6.30 to 7.00
17 | NCC(O)COc1cc(Cl)c(-c2noc(-c3cn4cc(C(F)(F)F)cc(Cl)c4n3)n2)cc1F (stereo not drawn) [Example 216, 1-amino-3-[(5-chloro-4-{5-[8-chloro-6-(trifluoromethyl)imidazo[1,2-a]pyridin-2-yl]-1,2,4-oxadiazol-3-yl}-2-fluorophenyl)oxy]propan-2-ol] | ≥ 7.00 | ≥ 7.00
18 | O=C(O)CCc1ccc(-c2nc(-c3cn4cc(C(F)(F)F)cc(Cl)c4n3)no2)cc1Cl [Example 235, 3-(2-chloro-4-{3-[8-chloro-6-(trifluoromethyl)imidazo[1,2-a]pyridin-2-yl]-1,2,4-oxadiazol-5-yl}phenyl)propanoic acid] | ≥ 7.00 | 6.30 to 7.00
19 | OCCOc1ccc(-c2nnc(-c3cn4cc(C(F)(F)F)cc(Cl)c4n3)s2)c(Cl)c1 [Example 243, 2-[(3-chloro-4-{5-[8-chloro-6-(trifluoromethyl)imidazo[1,2-a]pyridin-2-yl]-1,3,4-thiadiazol-2-yl}phenyl)oxy]ethanol] | ≥ 7.00 | 6.30 to 7.00
20 | O=C(O)CCOc1ccc(-c2noc(-c3cn4cc(C(F)(F)F)cc(Cl)c4n3)n2)c(Cl)c1 [Example 255, 3-[(3-chloro-4-{5-[8-chloro-6-(trifluoromethyl)imidazo[1,2-a]pyridin-2-yl]-1,2,4-oxadiazol-3-yl}phenyl)oxy]propanoic acid] | ≥ 7.00 | 6.30 to 7.00
21 | CC(CC(=O)O)c1ccc(-c2noc(-c3cn4cc(C(F)(F)F)cc(Br)c4n3)n2)c(Cl)c1 (stereo not drawn) [Example 266, 3-(4-{5-[8-bromo-6-(trifluoromethyl)imidazo[1,2-a]pyridin-2-yl]-1,2,4-oxadiazol-3-yl}-3-chlorophenyl)butanoic acid] | ≥ 7.00 | 6.30 to 7.00
22 | N#CC(CC(=O)O)c1ccc(-c2noc(-c3cn4cc(C(F)(F)F)cc(Cl)c4n3)n2)c(Cl)c1 (stereo not drawn) [Example 267, 3-(3-chloro-4-{5-[8-chloro-6-(trifluoromethyl)imidazo[1,2-a]pyridin-2-yl]-1,2,4-oxadiazol-3-yl}phenyl)-3-cyanopropanoic acid] | ≥ 7.00 | 6.30 to 7.00
23 | OCCC(O)c1ccc(-c2noc(-c3cn4cc(C(F)(F)F)cc(Cl)c4n3)n2)c(Cl)c1 (stereo not drawn) [Example 272, 1-(3-chloro-4-{5-[8-chloro-6-(trifluoromethyl)imidazo[1,2-a]pyridin-2-yl]-1,2,4-oxadiazol-3-yl}phenyl)propane-1,3-diol] | ≥ 7.00 | 6.30 to 7.00
24 | Fc1ccc(-c2noc(-c3cn4cc(C(F)(F)F)cc(Cl)c4n3)n2)c(Cl)c1 [Example 274, 8-chloro-2-[3-(2-chloro-4-fluorophenyl)-1,2,4-oxadiazol-5-yl]-6-(trifluoromethyl)imidazo[1,2-a]pyridine] | 6.30 to 7.00 | 6.00 to 6.30
